# Source: PubChem BioAssay (NCI)
#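 Exposure lasted 48 hours, with cells grown in 96-well plates and compounds tested at five concentrations. GI50: concentration for 50% inhibition of growth. TGI is the concentration that stops growth completely.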
# Assays:
# Assay in all cases: DTP human tumour cell line panel, 48 h
# [1] = test system: NCI-H23 lung
# [2] = test system: CCRF-CEM leukemia
# [3] = test system: SF-539 CNS
# [4] = test system: EKVX NSCLC
# [5] = test system: HCC-2998 colon
# [6] = test system: LOX IMVI melanoma
# [7] = test system: SF-295 CNS
# [8] = test system: MCF7 breast
# [9] = test system: NCI/ADR-RES ovarian
# [10] = test system: BT-549 breast
Compound,GI50 [1] [µM],TGI [1] [µM],GI50 [2] [µM],TGI [2] [µM],GI50 [3] [µM],TGI [3] [µM],GI50 [4] [µM],TGI [4] [µM],GI50 [5] [µM],TGI [5] [µM],GI50 [6] [µM],TGI [6] [µM],TGI [7] [µM],GI50 [8] [µM],TGI [8] [µM],GI50 [9] [µM],TGI [9] [µM],GI50 [7] [µM],GI50 [10] [µM],TGI [10] [µM]
O=C(/C=C(\O)C(=O)O)/C=C(\O)c1ccccc1,> 100,> 100,> 1,> 100,< 1,> 1,> 1,> 100,> 100,> 100,> 1,> 100,> 100,–,–,–,–,–,–,–
O=c1cc(-c2ccccn2)[nH]c2cccc(F)c12,–,> 100,–,> 100,–,> 100,–,> 100,–,> 100,–,> 100,> 100,–,–,–,–,–,–,–
COc1cc(CNc2nc3c(N)cc(C(F)(F)F)cc3nc2-c2ccccc2)cc(OC)c1OC,–,> 100,> 100,> 100,> 100,> 100,–,25.6,–,> 100,–,> 100,> 100,–,–,–,–,–,–,–
C=C1CC(CC)(CCN2C(=O)c3ccccc3C2=O)OC1=O (stereo not given),–,29.9,–,> 100,–,46.6,–,31.1,–,32.1,–,29.6,> 100,–,–,–,–,–,–,–
COc1ccccc1N=Nc1c(-c2ccccc2)nn(C(=O)CC(=O)Nc2cccc(C)c2)c1-c1ccccc1,–,> 100,–,> 100,–,> 100,–,> 100,–,> 100,–,> 100,> 100,–,–,–,–,–,–,–
C=CCn1c(=S)sc2c(C(=O)OCC)c3c(C)cc(C)cn3c2c1=O,–,> 100,–,> 100,–,> 100,–,> 100,–,> 100,–,> 100,> 100,–,–,–,–,–,–,–
CC(C)N(C(=O)c1cccc(C(=O)N(C(C)C)C(C)C)c1)C(C)C,–,> 100,–,> 100,–,> 100,–,> 100,–,> 100,–,> 100,> 100,–,–,–,–,–,–,–
N#C/C(=C1\SCC(=O)N1c1ccccc1)c1nc2ccccc2[nH]1,–,> 100,–,> 100,–,> 100,–,> 100,–,–,–,> 100,> 100,–,–,–,–,–,–,–
COC(=O)CCC(NC(=S)N/N=C(\C)c1ccc[nH]1)C(=O)OC (stereo not given),–,> 100,–,> 100,–,> 100,–,> 100,–,> 100,–,> 100,> 100,–,–,–,–,–,–,–
O=c1cccccc1[O-].O=c1cccccc1[O-].O=c1cccccc1[O-].[Eu+3],–,> 100,–,78,30.2,> 100,–,> 100,–,> 100,–,> 100,> 100,–,–,–,–,–,–,–
[N-]=[N+]=NC(c1cn(C2CC(O)C(CO)O2)c(=O)[nH]c1=O)C(Cl)Br (stereo not given),–,> 100,–,> 100,–,> 100,–,> 100,–,> 100,–,> 100,> 100,–,–,–,–,–,–,–
Cc1c(C(=O)C/C(=N/NC(=O)c2ccccc2)C(=O)Nc2ccc(Cl)cc2)[n+](=O)c2ccccc2n1[O-],–,92.6,–,74.4,–,> 100,–,–,–,–,–,> 100,> 100,–,–,–,–,–,–,–
CCCn1c2c(c3c(O)cccc31)C(=O)c1ccccc1-2,11.5,> 100,> 100,> 100,–,–,15.9,> 100,9.72,> 100,31.6,> 100,67.8,58,> 100,13.4,81.6,23,–,–
C[N+]1=c2c3cccc4cccc(c(=O)n2CC1)c43,–,32.3,–,42.3,–,32.2,–,87.5,–,–,–,17.6,56.1,–,–,–,–,–,–,–
COc1cc2c(cc1OC)C(C(=O)O)C(c1ccccc1)N(C)C2=O (stereo not given),–,> 100,–,> 100,–,> 100,–,> 100,–,> 100,–,–,> 100,–,–,–,–,–,–,–
C=C1C(=O)O[C@H]2[C@H]1CC/C(COC(=O)CCCCCC(=O)OC/C1=C/CC[C@@]3(C)O[C@H]3[C@H]3OC(=O)C(=C)[C@@H]3CC1)=C\CC[C@@]1(C)O[C@@H]21,2.72,9.98,0.393,3.86,1.67,3.58,2.84,11.5,1.95,3.98,1.47,2.88,16.5,–,–,3.64,24.8,4.09,1.44,3.02

Compound,GI50 [1] [µM],TGI [1] [µM],GI50 [2] [µM],TGI [2] [µM],GI50 [3] [µM],TGI [3] [µM],GI50 [4] [µM],TGI [4] [µM],GI50 [5] [µM],TGI [5] [µM],GI50 [6] [µM],TGI [6] [µM],TGI [7] [µM],GI50 [8] [µM],TGI [8] [µM],GI50 [9] [µM],TGI [9] [µM],GI50 [7] [µM],GI50 [10] [µM],TGI [10] [µM]
N#C/C(=C/C=C/c1ccco1)C(N)=O,–,–,–,–,–,> 10,–,> 10,–,> 10,–,> 10,> 10,–,> 10,–,> 10,–,–,–
CC(C)/C=C1\CCC(CN2CCOCC2)C1=O (stereo not given),–,33.9,–,9.51,–,29.3,–,36.8,–,36.5,–,53.6,> 77.7,–,–,–,–,–,–,–
COc1ccc(/C=C(/c2ccccc2)[N+](=O)[O-])c(OC)c1,1.93,4.76,0.46,4.76,1.58,2.94,1.73,3.98,1.92,3.4,0.399,1.63,3.86,–,–,1.72,5.63,1.97,1.48,2.89
O=C1C2C(C(=O)N1c1ccccc1)C1c3ccccc3C2C2C(=O)N(c3ccccc3)C(=O)C21 (stereo not given),–,> 100,–,> 100,–,31.4,–,> 100,–,24.7,–,> 100,15.5,–,–,–,–,–,–,–
Cc1cc(N(CCC#N)S(=O)(=O)c2ccccc2)ccc1/C=C1\N=C(c2ccc(Cl)cc2)OC1=O,–,> 100,–,> 100,–,> 100,–,> 100,–,> 100,–,> 100,> 100,–,–,–,–,–,–,–
CCCn1c(SCCSc2c3ccccc3c(-c3nc(F)nc(F)n3)n2CCC)c2ccccc2c1-c1nc(F)nc(F)n1,–,> 100,–,> 100,–,> 100,–,> 100,–,> 100,–,–,> 100,–,–,–,–,–,–,–
COc1cc2c(cc1OC)-c1ncc3c(OC)ccc(OC)c3c1C2,–,–,–,–,14,33.4,16.9,54.9,22.6,> 100,16.7,> 100,42.7,–,–,23.6,> 100,12.1,11.1,32.5
Cc1ccc(S(=O)(=O)N/N=C(\c2nc3ccc(Cl)cc3[nH]c2=O)C(O)c2ccco2)cc1 (stereo not given),–,> 100,–,> 100,–,> 100,–,> 100,–,> 100,–,> 100,> 100,–,–,–,–,–,–,–
CC(C)C1CO[C@]2(C)CCC(=O)N12 (stereo not given in full),–,> 100,–,> 100,–,> 100,–,> 100,–,–,–,–,> 100,–,–,–,–,–,–,–
C/C(CC(=O)NCCc1ccccc1)=N\NS(=O)(=O)c1ccc(C)cc1,–,> 100,–,> 100,–,> 100,–,> 100,–,> 100,–,> 100,> 100,–,–,–,–,–,–,–
Cc1cc2c(c(C(N)=O)c1C)-c1cccc(F)c1C2=O,–,> 100,–,> 100,–,> 100,–,> 100,–,> 100,–,> 100,> 100,–,–,–,–,–,–,–
C=C(C)[C@@H]1CCC=C2CC[C@]3(C)[C@H](CC[C@@H]4[C@@]5(C)CCCNC(C)(C)[C@@H]5CC[C@]43C)[C@H]21,–,–,2.48,7.21,1.89,3.58,2.17,5.6,–,–,–,–,3.13,–,–,–,–,1.69,4.5,20.7
C=CC(=O)N1C/C(=C\c2ccc(Cl)c(Cl)c2)C(=O)/C(=C/c2ccc(Cl)c(Cl)c2)C1,–,0.438,–,0.082,–,0.367,–,–,–,0.446,–,0.842,0.891,–,–,–,–,–,–,–
CCOC(=O)NC(=O)c1cn(CCN2CCN(C(=O)CNC(=O)CNC(=O)Cn3cc(C(=O)NC(=O)OCC)c(=O)[nH]c3=O)CC2)c(=O)[nH]c1=O,–,> 100,–,> 100,–,> 100,–,–,–,> 100,–,> 100,> 100,–,–,–,–,–,–,–
Oc1c(C(Nc2ccccc2Br)c2ccccc2)ccc2cccnc12 (stereo not given),3.96,26.9,–,–,3.65,13.5,2.48,> 100,2.19,97.9,1.91,13.6,47.3,1.56,65.1,1.44,24.5,1.65,–,–
CCC[CH2][Sn]([CH2]CCC)([O]C(=O)c1cc(OC)c(OC)cc1OC)[O][Sn]([CH2]CCC)([CH2]CCC)[O]C(=O)c1cc(OC)c(OC)cc1OC,0.313,1.19,0.0421,0.422,0.314,1.01,1.7,3.09,1.1,2.41,0.257,0.782,2.41,–,–,–,–,1.1,–,–
